# Source: PMC9042912, “T cell receptor and IL-2 signaling strength control memory CD8^+ T cell functional fitness via chromatin remodeling” (Nature Communications, 2022)
# pKd: −log10 of the molar value. “And” between values parts separate entries of the source, which are not always exact repeats. Equal entries are not always repeated. Where two headings read alike, the source gives them in different places. No end group written: not given here.
# Columns and labels:
# H2-K^b = biological target: T1, H2-K^b (Mus musculus, UniProt P01901); test: cell-based
# T1 construct: RMA-S cells were added per well to a 96-well flat-bottom plate and incubated at 30 °C overnight; endogenous in cells; host or cells: RMA-S cells (TAP-deficient), obtained from Dr. Steve Porcelli
# T1 sequence (P01901 22-369): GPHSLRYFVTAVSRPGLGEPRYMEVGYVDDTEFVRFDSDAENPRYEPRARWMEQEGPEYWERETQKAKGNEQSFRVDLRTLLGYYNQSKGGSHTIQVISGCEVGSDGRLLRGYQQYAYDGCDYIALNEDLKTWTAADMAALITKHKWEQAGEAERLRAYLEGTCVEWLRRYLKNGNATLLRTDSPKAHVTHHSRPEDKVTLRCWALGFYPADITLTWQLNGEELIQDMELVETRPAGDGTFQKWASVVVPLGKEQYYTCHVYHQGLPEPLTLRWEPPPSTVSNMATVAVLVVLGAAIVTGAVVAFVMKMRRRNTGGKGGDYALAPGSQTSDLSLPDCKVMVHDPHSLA
# T1 sequence (P01887 21-119 partner): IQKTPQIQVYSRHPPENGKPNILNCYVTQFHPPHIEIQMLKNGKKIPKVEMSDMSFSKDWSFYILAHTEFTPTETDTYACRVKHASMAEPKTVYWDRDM
# H2-D^b = H2-D^b (Mus musculus, UniProt P01899); format: cell-based
# Chain of H2-D^b (P01899 25-362, one chain of several): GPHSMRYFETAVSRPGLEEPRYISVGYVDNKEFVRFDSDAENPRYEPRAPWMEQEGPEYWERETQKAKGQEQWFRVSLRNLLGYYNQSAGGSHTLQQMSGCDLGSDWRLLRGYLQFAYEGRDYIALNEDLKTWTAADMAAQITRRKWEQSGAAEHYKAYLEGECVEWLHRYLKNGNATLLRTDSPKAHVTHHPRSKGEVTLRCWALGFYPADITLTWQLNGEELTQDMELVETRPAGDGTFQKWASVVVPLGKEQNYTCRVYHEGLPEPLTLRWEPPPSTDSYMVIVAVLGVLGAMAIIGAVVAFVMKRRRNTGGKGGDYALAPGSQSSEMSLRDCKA
# [1] = system: OT-I, gBT-I, P14, L9.6 T cells; conditions: mouse
# OT-I cells = format: in vivo, mouse; conditions: for % Il2ra mut/mut among OT-I / % WT among OT-I: individual values
compound,measurement,setting,value
CC[C@H](C)[C@H](NC(=O)[C@@H](NC(=O)[C@@H](N)CO)[C@@H](C)CC)C(=O)N[C@@H](CC(N)=O)C(=O)N[C@@H](Cc1ccccc1)C(=O)N[C@@H](CCC(=O)O)C(=O)N[C@@H](CCCCN)C(=O)N[C@@H](CC(C)C)C(=O)O [N4],pKd,H2-K^b,6.95
KAVYNFATC [GP33-41],formation of stable complexes with D^b,H2-D^b,form stable MHC class I complexes
same,duration for which the Lm-expressed epitope induces naïve T cell proliferation in vivo,[1],~ 2 days
SIIQFEKL [Q4],pKd,H2-K^b,7.19
SIITFEKL [T4],pKd,H2-K^b,7.23
SSIEFARL [gB498-505],pKd,H2-K^b,7.49
diphtheria toxin [DT],decrease of primary OT-I cell expansion,OT-I cells; CD11c+ cell depletion 2 days after Lm-Ova infection,~ 50%
same,% Il2ra mut/mut among OT-I,OT-I cells; Memory + DT,29.30% and 45.50% and 51.90% and 25.10% and 25.90% and 50.30% and 56.40%
same,% WT among OT-I,OT-I cells; Memory + DT,70.10% and 54.40% and 47.80% and 74.30% and 73.60% and 49.50% and 43.40%
same,% Il2ra mut/mut among OT-I,OT-I cells; Primary + DT,4.26% and 7.74% and 13.10% and 8.93% and 11.40% and 29.60% and 21.10% and 24.20% and 24.80% and 4.23%
same,% WT among OT-I,OT-I cells; Primary + DT,91.80% and 86.30% and 90.50% and 87.80% and 89.00% and 69.30% and 77.20% and 73.40% and 64.60% and 95.20% and 95.30%
same,% OT-I,"OT-I cells; depletion of CD11c+ cells in CD11c-DTR mice, compared with control group, each value one mouse (Suppl. Fig. 4B)",4.98% and 8.05% and 8.87% and 13.60%
